For one data set, the system named is FVIII inhibited plasma. Nature of the data set: Defined Dual-Pathway Thrombin Generation Assay (DDPTGA, reagent C high), FVIII inhibited plasma. The conditions noted are these: for Peak IIa FEIBA EU / Peak IIa FVIIa EU / Peak Time FEIBA EU / Peak Time FVIIa EU: FVIII inhibited plasma. The data set is classed as biochemical, human.
The next data set has as its system FVIII deficient plasma. Briefly: Defined Dual-Pathway Thrombin Generation Assay (DDPTGA, reagent C high), FVIII deficient plasma. The data set is classed as biochemical, human. The conditions noted are these: FVIII deficient plasma.
The conditions of data set [1]: pH 7.4.
A further data set deals with HERG channel (Homo sapiens, UniProt Q12809). Briefly: HERG inhibition, patch clamp assay. As to the method: QT prolongation is assessed by HERG inhibition measured by patch-clamp techniques or Rb^+ efflux.
Sequence of HERG channel (Q12809 whole entry): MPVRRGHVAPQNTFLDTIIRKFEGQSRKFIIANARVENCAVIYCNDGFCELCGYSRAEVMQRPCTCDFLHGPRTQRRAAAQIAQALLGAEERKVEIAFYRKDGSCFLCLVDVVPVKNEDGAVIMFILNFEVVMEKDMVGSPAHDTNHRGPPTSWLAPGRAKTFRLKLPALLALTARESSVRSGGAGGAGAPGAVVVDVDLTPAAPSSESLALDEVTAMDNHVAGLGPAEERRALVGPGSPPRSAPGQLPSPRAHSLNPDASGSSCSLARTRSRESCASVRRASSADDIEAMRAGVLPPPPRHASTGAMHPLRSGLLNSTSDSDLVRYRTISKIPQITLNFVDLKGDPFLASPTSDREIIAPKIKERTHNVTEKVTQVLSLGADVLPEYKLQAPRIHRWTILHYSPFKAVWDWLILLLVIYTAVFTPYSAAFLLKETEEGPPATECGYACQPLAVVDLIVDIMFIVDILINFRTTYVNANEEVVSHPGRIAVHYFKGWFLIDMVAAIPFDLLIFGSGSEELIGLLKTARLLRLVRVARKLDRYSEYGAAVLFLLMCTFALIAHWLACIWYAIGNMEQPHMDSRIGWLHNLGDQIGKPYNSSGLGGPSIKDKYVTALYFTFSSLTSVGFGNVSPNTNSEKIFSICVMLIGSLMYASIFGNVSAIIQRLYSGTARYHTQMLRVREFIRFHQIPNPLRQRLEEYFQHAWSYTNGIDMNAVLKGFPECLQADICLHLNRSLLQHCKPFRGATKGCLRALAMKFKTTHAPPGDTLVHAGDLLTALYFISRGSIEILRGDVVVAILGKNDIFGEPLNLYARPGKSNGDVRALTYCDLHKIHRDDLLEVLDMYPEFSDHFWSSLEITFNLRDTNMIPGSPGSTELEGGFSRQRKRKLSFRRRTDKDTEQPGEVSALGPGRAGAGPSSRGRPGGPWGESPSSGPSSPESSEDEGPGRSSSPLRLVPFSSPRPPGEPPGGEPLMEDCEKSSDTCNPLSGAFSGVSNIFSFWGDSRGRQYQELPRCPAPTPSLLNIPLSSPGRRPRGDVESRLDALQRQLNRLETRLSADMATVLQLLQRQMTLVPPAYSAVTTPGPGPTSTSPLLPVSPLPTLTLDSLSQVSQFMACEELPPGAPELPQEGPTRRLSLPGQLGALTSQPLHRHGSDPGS
For rigorous characterization of HERG inhibition the patch clamp assay is applied (Cerep, France, Catalog ref. 900-36). […] The test compounds (10 mM stock solutions) were dissolved in dimethylsulfoxide (DMSO). The solutions at 1 μM contained 0.01% DMSO.
(In general: Patch clamp records ionic current or voltage across a cell membrane.)

Where no end group is shown, it is not given here.

As usually defined, the Aqueous solubility is the concentration that dissolves in the medium under given conditions. A lower Aqueous solubility goes with a poorly soluble substance. On to PEG5000-WSLYFEIVWE [Peptide A17], for which, in the data set with FVIII inhibited plasma (peptide 50 μM), the “Peak IIa FEIBA EU” value was “BLS (BLS = below lowest standard.)”, the “Peak IIa FVIIa EU” value was “BLS (BLS = below lowest standard.)”, the “Peak Time FEIBA EU” value is “BLS (BLS = below lowest standard.)” and the “Peak Time FVIIa EU” value is recorded as “BLS (BLS = below lowest standard.)”. In the data set with FVIII inhibited plasma (peptide 100 μM), the “Peak IIa FEIBA EU” value is “BLS (BLS = below lowest standard.)”, the “Peak IIa FVIIa EU” value is listed as “BLS (BLS = below lowest standard.)”, the “Peak Time FEIBA EU” value was “BLS (BLS = below lowest standard.)” and the “Peak Time FVIIa EU” value worked out at 0.1 nM. Also, the “Activity in the Defined Dual-Pathway Thrombin Generation Assay” value in the data set on FVIII inhibited plasma (summary, FVIII inhibited or deficient plasma) is listed as “possess activity”. Moreover, in the data set with FVIII deficient plasma (peptide 50 μM), the “Peak IIa FVIII EU” value is reported as “BLS (BLS = below lowest standard.)” and the “Peak Time FVIII EU” value is 5.1 mU/ml. In the data set with FVIII deficient plasma (peptide 100 μM), the “Peak IIa FVIII EU” value is reported as “BLS (BLS = below lowest standard.)” and the “Peak Time FVIII EU” value is reported as 5.9 mU/ml. In addition, the Aqueous solubility in data set [1] is 2000 µM.
“PEG5000-RMKFDVWDLYFEIVW-NH2 [Peptide A16]”: in the data set on FVIII inhibited plasma (peptide 50 μM), the “Peak IIa FEIBA EU” value is recorded as “BLS (BLS = below lowest standard.)”, the “Peak IIa FVIIa EU” value is given as “BLS (BLS = below lowest standard.)”, the “Peak Time FEIBA EU” value was “BLS (BLS = below lowest standard.)” and the “Peak Time FVIIa EU” value was “BLS (BLS = below lowest standard.)”. In the data set on FVIII inhibited plasma (peptide 100 μM), the “Peak IIa FEIBA EU” value is listed as “BLS (BLS = below lowest standard.)”, the “Peak IIa FVIIa EU” value was “BLS (BLS = below lowest standard.)”, the “Peak Time FEIBA EU” value is listed as “BLS (BLS = below lowest standard.)” and the “Peak Time FVIIa EU” value is on record as “BLS (BLS = below lowest standard.)”. In the data set with FVIII deficient plasma (peptide 50 μM), the “Peak IIa FVIII EU” value is “BLS (BLS = below lowest standard.)” and the “Peak Time FVIII EU” value is “BLS (BLS = below lowest standard.)”. In the data set on FVIII deficient plasma (peptide 100 μM), the “Peak IIa FVIII EU” value was “BLS (BLS = below lowest standard.)” and the “Peak Time FVIII EU” value was “BLS (BLS = below lowest standard.)”. Also, in the data set with HERG channel, the “Classification as HERG-channel blocker (potency ranking of Roche et al.)” value is “low-potency”. Moreover, in data set [1], the Aqueous solubility was determined as 220 µM and the “Solubility in PBS” value is over 200 µM.

Source of the values: US10822376B2, “Biologically active peptides” (Baxalta Incorporated, priority 2008, dated 2020).
